Experimental data published in PubChem BioAssay AID1963977 (Molecular Pharmacology Branch, DTP, NCI, 2024).
“And” between values parts separate entries of the source, which are not always exact repeats. Equal entries are not always repeated.

System: 624824-186-R-J3-PDC multicell spheroids, viability
Experiment: Anticancer human tumor 624824-186-R-J3-PDC patient-derived colon adenocarcinoma cell line growth inhibition [PI3K]
Conditions: for viability, T/C: stronger effect = lower value
In short: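 Spheroid viability read-out. Co-cultures contained the tumor line plus HUVEC and human MSCs. Each agent was paired with a PI3K inhibitor (inavolisib, alpelisib, duvelisib, copanlisib) across half-log dilutions starting at clinical Cmax, or at 10 microM when Cmax was unknown.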

[1] = curve of first compound, second compound 0.0316 µM
[2] = curve of first compound, second compound 0.1 µM
[3] = curve of first compound, second compound 0.316 µM
[4] = curve of first compound, second compound 1 µM
[5] = curve of first compound, second compound 3.16 µM
[6] = curve of first compound, second compound 10 µM
[7] = second compound 0.0316 µM, first compound 0.0316 µM
[8] = second compound 0.0316 µM, first compound 0.1 µM
[9] = second compound 0.1 µM, first compound 0.0316 µM
[10] = second compound 0.1 µM, first compound 0.1 µM
[11] = second compound 0.316 µM, first compound 0.0316 µM
[12] = second compound 0.316 µM, first compound 0.1 µM
[13] = second compound 1 µM, first compound 0.0316 µM
[14] = second compound 1 µM, first compound 0.1 µM
[15] = second compound 3.16 µM, first compound 0.0316 µM
[16] = second compound 3.16 µM, first compound 0.1 µM
[17] = second compound 10 µM, first compound 0.0316 µM
[18] = second compound 10 µM, first compound 0.1 µM
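Also: spheroids exposed to agents for seven days before luminescence read.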
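For viability, T/C in this document: luminescent signal used as a stand-in for spheroid viability; percent viability relative to DMSO vehicle control wells taken as 100%.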

## Cn1nccc1Nc1nccc(-c2ccn(C(CO)c3ccc(Cl)c(F)c3)c(=O)c2)n1 (stereo not drawn) + Cc1nc(NC(=O)N2CCCC2C(N)=O)sc1-c1ccnc(C(C)(C)C(F)(F)F)c1
[1]
  IC50: 8080 nM
[2]
  IC50: 5010 nM
[3]
  IC50: 1570 nM
[4]
  IC50: 783 nM
[5]
  IC50: 223 nM
[6]
  IC50: 100 nM
[7]
  viability, T/C: 119%
[8]
  viability, T/C: 105%
Second compound 0.0316 µM, first compound 0.316 µM
  viability, T/C: 90.7%
Second compound 0.0316 µM, first compound 1 µM
  viability, T/C: 74.7%
Second compound 0.0316 µM, first compound 3.16 µM
  viability, T/C: 55%
Second compound 0.0316 µM, first compound 10 µM
  viability, T/C: 49.5%
[9]
  viability, T/C: 109%
[10]
  viability, T/C: 104%
Second compound 0.1 µM, first compound 0.316 µM
  viability, T/C: 83.6%
Second compound 0.1 µM, first compound 1 µM
  viability, T/C: 73%
Second compound 0.1 µM, first compound 3.16 µM
  viability, T/C: 56.3%
Second compound 0.1 µM, first compound 10 µM
  viability, T/C: 40.9%
[11]
  viability, T/C: 106%
[12]
  viability, T/C: 110%
Second compound 0.316 µM, first compound 0.316 µM
  viability, T/C: 78%
Second compound 0.316 µM, first compound 1 µM
  viability, T/C: 58%
Second compound 0.316 µM, first compound 3.16 µM
  viability, T/C: 42%
Second compound 0.316 µM, first compound 10 µM
  viability, T/C: 31.8%
[13]
  viability, T/C: 103%
[14]
  viability, T/C: 89.5%
Second compound 1 µM, first compound 0.316 µM
  viability, T/C: 72.7%
Second compound 1 µM, first compound 1 µM
  viability, T/C: 43.2%
Second compound 1 µM, first compound 3.16 µM
  viability, T/C: 29.6%
Second compound 1 µM, first compound 10 µM
  viability, T/C: 25.4%
[15]
  viability, T/C: 84.5%
[16]
  viability, T/C: 77.7%
Second compound 3.16 µM, first compound 0.316 µM
  viability, T/C: 37.6%
Second compound 3.16 µM, first compound 1 µM
  viability, T/C: 21.3%
Second compound 3.16 µM, first compound 3.16 µM
  viability, T/C: 17.8%
Second compound 3.16 µM, first compound 10 µM
  viability, T/C: 16.2%
[17]
  viability, T/C: 62.2%
[18]
  viability, T/C: 50.4%
Second compound 10 µM, first compound 0.316 µM
  viability, T/C: 27.3%
Second compound 10 µM, first compound 1 µM
  viability, T/C: 14.1%
Second compound 10 µM, first compound 3.16 µM
  viability, T/C: 10.9%
Second compound 10 µM, first compound 10 µM
  viability, T/C: 7.57%

## CC(=O)c1c(C)c2cnc(Nc3ccc(N4CCNCC4)cn3)nc2n(C2CCCC2)c1=O + Cc1nc(NC(=O)N2CCCC2C(N)=O)sc1-c1ccnc(C(C)(C)C(F)(F)F)c1
[1]
  IC50: > 100 nM
[2]
  IC50: > 100 nM
[3]
  IC50: > 100 nM
[4]
  IC50: > 100 nM
[5]
  IC50: > 100 nM
[6]
  IC50: 63.9 nM
Second compound 0.0316 µM, first compound 0.000316 µM
  viability, T/C: 109%
Second compound 0.0316 µM, first compound 0.001 µM
  viability, T/C: 102%
Second compound 0.0316 µM, first compound 0.00316 µM
  viability, T/C: 119%
Second compound 0.0316 µM, first compound 0.01 µM
  viability, T/C: 99.5%
[7]
  viability, T/C: 112%
[8]
  viability, T/C: 101%
Second compound 0.1 µM, first compound 0.000316 µM
  viability, T/C: 97.3%
Second compound 0.1 µM, first compound 0.001 µM
  viability, T/C: 104%
Second compound 0.1 µM, first compound 0.00316 µM
  viability, T/C: 113%
Second compound 0.1 µM, first compound 0.01 µM
  viability, T/C: 103%
[9]
  viability, T/C: 107%
[10]
  viability, T/C: 106%
Second compound 0.316 µM, first compound 0.000316 µM
  viability, T/C: 112%
Second compound 0.316 µM, first compound 0.001 µM
  viability, T/C: 107%
Second compound 0.316 µM, first compound 0.00316 µM
  viability, T/C: 114%
Second compound 0.316 µM, first compound 0.01 µM
  viability, T/C: 110%
[11]
  viability, T/C: 104%
[12]
  viability, T/C: 109%
Second compound 1 µM, first compound 0.000316 µM
  viability, T/C: 106%
Second compound 1 µM, first compound 0.001 µM
  viability, T/C: 99.1%
Second compound 1 µM, first compound 0.00316 µM
  viability, T/C: 109%
Second compound 1 µM, first compound 0.01 µM
  viability, T/C: 94.8%
[13]
  viability, T/C: 101%
[14]
  viability, T/C: 93.4%
Second compound 3.16 µM, first compound 0.000316 µM
  viability, T/C: 85.7%
Second compound 3.16 µM, first compound 0.001 µM
  viability, T/C: 95.7%
Second compound 3.16 µM, first compound 0.00316 µM
  viability, T/C: 97.8%
Second compound 3.16 µM, first compound 0.01 µM
  viability, T/C: 85.1%
[15]
  viability, T/C: 85.3%
[16]
  viability, T/C: 62.9%
Second compound 10 µM, first compound 0.000316 µM
  viability, T/C: 71.8%
Second compound 10 µM, first compound 0.001 µM
  viability, T/C: 73.1%
Second compound 10 µM, first compound 0.00316 µM
  viability, T/C: 76%
Second compound 10 µM, first compound 0.01 µM
  viability, T/C: 64.6%
[17]
  viability, T/C: 59.7%
[18]
  viability, T/C: 43.9%

## C[C@@H](NC(=O)c1ncnc(N)c1Cl)c1ncc(C(=O)Nc2cc(C(F)(F)F)c(Cl)cn2)s1
Compound 0.0316 µM
  viability, T/C: 103% and 100% and 120%
Compound 0.1 µM
  viability, T/C: 96.1% and 93.2% (2×)
Compound 0.316 µM
  viability, T/C: 99.7% and 104% and 102%
Compound 1 µM
  viability, T/C: 99.9% and 97.9% and 107%
Compound 3.16 µM
  viability, T/C: 94.9% and 98.1% and 99.8%
Compound 10 µM
  viability, T/C: 89.5% and 97.3% and 104%
Curve of compound
  IC50: > 10000 nM

## CC(=O)c1c(C)c2cnc(Nc3ccc(N4CCNCC4)cn3)nc2n(C2CCCC2)c1=O
Compound 0.000316 µM
  viability, T/C: 101% [middle of 4 runs]
Compound 0.001 µM
  viability, T/C: 103% [middle of 4 runs]
Compound 0.00316 µM
  viability, T/C: 104% [middle of 4 runs]
Compound 0.01 µM
  viability, T/C: 98.7% [middle of 4 runs]
Compound 0.0316 µM
  viability, T/C: 108% [middle of 4 runs]
Compound 0.1 µM
  viability, T/C: 105% [middle of 4 runs]
Curve of compound
  IC50: > 100 nM
